From ChEMBL document CHEMBL1201862, “PubChem BioAssay data set” (2004)
Active and inactive are the calls of the source.

What was measured:
[1] = biological target: T1, RNA-binding protein pos-1 (Caenorhabditis elegans, UniProt G5EF15); test: disruptors of C. elegans POS-1 RNA interaction – biochemical, fluorescence polarization, dose response (AID 1964);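 also: purified POS-1 fused to maltose binding protein made in E. coli; potency of compounds blocking POS-1 binding to fluorescent RNA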
T1 sequence (G5EF15 whole entry): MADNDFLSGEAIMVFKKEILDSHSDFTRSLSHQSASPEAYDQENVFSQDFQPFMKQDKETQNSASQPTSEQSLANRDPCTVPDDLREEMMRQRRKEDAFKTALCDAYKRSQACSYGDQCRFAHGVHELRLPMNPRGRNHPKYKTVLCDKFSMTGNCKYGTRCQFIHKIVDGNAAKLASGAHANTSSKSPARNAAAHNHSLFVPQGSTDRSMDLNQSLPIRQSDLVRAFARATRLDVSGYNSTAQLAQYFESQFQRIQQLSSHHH

[2] = biological target: T2, Rac GTPase-activating protein 1 (Homo sapiens, UniProt Q9H0H5); test: blockers of MgcRacGAP-driven Rac1 GTP hydrolysis – biochemical, ADP Hunter fluorescence, primary and confirmatory, confirmation (AID 624330); assay type: functional
T2 sequence (Q9H0H5 whole entry): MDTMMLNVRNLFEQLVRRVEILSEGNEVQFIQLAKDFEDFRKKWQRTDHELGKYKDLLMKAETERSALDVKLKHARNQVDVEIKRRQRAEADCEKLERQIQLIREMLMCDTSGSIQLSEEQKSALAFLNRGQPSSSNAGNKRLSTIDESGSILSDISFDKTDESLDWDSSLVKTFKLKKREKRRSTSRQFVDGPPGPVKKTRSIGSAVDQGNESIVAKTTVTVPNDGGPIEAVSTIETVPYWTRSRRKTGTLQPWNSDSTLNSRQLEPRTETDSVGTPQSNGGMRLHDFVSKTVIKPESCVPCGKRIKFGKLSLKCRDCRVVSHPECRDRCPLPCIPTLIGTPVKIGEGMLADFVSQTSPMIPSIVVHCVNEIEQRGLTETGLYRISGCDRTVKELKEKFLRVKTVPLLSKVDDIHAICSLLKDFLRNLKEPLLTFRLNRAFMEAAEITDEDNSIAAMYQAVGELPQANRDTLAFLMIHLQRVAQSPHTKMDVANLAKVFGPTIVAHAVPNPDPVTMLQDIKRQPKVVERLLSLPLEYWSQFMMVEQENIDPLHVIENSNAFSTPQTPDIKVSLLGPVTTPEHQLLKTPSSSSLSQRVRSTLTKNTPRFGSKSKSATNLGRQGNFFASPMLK

[3] = biological target: T3, Zinc finger protein mex-5 (Caenorhabditis elegans, UniProt Q9XUB2); test: potency of MEX-5 RNA-binding blockers – biochemical, C. elegans, fluorescence polarization, dose response (AID 1960)
T3 sequence (Q9XUB2 whole entry): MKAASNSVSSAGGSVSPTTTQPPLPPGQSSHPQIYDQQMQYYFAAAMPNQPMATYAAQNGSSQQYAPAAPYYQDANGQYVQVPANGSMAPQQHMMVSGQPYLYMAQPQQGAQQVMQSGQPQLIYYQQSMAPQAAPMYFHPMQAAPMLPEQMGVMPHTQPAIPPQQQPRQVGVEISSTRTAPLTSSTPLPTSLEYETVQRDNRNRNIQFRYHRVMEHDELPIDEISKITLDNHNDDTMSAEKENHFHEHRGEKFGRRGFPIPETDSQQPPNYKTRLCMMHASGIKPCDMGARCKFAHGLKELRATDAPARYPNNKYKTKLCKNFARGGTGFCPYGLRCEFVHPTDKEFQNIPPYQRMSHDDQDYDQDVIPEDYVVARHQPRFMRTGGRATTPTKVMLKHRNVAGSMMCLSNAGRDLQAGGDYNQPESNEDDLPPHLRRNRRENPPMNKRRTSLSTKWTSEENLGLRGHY

Genome polyprotein = Genome polyprotein (dengue virus type 2, UniProt P29990); test: flavivirus cap methylation enzyme inhibition – biochemical, confirmation dose response, primary screen (AID 588689); assay type: functional
Sequence of Genome polyprotein (P29990 2492-3391 limits assumed): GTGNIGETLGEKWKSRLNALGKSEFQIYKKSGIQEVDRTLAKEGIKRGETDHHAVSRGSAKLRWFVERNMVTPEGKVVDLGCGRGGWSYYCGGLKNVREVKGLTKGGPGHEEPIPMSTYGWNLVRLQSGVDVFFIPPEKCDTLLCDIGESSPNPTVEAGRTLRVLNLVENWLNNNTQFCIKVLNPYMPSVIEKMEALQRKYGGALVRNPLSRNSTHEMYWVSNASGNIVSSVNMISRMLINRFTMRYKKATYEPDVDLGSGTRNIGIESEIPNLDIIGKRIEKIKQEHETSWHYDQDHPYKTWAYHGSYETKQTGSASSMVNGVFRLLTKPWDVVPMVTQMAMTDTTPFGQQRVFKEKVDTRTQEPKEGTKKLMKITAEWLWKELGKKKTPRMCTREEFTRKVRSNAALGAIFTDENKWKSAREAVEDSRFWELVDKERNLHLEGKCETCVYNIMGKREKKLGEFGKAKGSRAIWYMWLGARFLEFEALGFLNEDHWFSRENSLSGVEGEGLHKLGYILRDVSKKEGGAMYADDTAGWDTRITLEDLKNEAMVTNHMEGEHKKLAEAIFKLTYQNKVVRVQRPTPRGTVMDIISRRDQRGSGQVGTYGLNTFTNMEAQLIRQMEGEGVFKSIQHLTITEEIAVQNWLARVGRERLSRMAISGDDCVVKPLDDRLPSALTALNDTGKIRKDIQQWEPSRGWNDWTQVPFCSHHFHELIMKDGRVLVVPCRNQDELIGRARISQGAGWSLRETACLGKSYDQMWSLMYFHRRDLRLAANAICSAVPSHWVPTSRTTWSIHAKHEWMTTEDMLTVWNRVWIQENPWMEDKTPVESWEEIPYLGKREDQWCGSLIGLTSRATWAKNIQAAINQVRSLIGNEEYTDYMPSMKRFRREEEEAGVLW

[4] = viability of uninfected HEp-2 cells – cell-based, HTS, cytotoxicity control for RSV inhibitor project, dose response (AID 2410); assay type: functional; details: human respiratory syncytial virus
[5] = biological target: T4, Heat shock factor protein 1 (Mus musculus, UniProt P38532); test: decrease of HSF1-responsive luciferase luminescence – cell-based, NIH3T3, dose retest, confirmation (AID 2382); assay type: functional;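 also: NIH3T3 fibroblasts with HSF1-driven luciferase reporter stressed by proteasome inhibitor MG132; luminescence from HSF1-driven luciferase expression after 8 hours of MG132 stress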
T4 sequence (P38532 whole entry): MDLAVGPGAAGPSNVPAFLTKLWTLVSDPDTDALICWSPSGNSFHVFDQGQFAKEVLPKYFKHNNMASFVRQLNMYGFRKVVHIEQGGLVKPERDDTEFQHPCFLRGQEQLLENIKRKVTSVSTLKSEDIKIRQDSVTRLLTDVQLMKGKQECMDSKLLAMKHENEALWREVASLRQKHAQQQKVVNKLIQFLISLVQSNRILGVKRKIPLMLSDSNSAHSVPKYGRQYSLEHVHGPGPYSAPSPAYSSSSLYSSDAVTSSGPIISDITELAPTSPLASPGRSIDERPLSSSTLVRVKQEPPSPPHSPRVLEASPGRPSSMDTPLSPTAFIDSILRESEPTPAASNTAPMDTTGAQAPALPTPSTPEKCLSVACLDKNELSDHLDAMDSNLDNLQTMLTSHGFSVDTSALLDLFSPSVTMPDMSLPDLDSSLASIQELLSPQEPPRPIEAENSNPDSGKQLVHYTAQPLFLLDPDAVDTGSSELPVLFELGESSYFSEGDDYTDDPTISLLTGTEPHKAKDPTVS

[6] = biological target: Eukaryotic translation initiation factor 4E (Mus musculus, UniProt P63073); test: blockers of eIF4G binding by eIF4E – biochemical, TR-FRET, dose response (AID 855); assay type: functional;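 also: potency for disrupting eIF4E binding to eIF4GI seen as loss of FRET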
Sequence of Eukaryotic translation initiation factor 4E (P63073 whole entry): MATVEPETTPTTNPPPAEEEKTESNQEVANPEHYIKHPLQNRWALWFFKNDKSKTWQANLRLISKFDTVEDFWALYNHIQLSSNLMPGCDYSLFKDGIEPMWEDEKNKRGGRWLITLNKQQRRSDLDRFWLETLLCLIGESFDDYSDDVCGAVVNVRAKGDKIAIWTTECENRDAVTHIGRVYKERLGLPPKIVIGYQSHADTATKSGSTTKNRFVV

Coagulation factor XII = biological target: T5, Coagulation factor XII (Homo sapiens, UniProt P00748); assay type: functional;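 also: activated factor XIIa alpha cleaving a fluorogenic AMC peptide substrate; inhibitor potency from loss of enzyme activity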
T5 sequence (P00748 whole entry): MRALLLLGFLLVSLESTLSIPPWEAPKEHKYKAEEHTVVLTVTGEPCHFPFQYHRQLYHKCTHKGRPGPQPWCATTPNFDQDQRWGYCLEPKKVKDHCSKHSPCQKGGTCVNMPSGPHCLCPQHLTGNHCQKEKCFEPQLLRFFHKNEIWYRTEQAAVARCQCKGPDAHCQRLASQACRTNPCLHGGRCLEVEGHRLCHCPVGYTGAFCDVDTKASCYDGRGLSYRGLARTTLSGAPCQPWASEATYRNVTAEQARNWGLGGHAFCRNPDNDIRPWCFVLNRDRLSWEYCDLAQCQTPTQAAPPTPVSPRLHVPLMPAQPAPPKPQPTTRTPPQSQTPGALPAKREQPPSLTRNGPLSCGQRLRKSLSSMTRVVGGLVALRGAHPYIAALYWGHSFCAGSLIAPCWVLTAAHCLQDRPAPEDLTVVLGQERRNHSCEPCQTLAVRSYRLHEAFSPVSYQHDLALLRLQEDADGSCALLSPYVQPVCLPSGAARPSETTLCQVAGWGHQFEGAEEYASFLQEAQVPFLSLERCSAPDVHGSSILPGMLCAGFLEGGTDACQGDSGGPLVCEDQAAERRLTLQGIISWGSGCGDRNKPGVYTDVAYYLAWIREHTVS

Cytochrome P450 2D6 = Cytochrome P450 2D6 (Homo sapiens, UniProt P10635);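 also: CYP2D6 member of a cytochrome P450 panel assay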
Sequence of Cytochrome P450 2D6 (P10635 whole entry): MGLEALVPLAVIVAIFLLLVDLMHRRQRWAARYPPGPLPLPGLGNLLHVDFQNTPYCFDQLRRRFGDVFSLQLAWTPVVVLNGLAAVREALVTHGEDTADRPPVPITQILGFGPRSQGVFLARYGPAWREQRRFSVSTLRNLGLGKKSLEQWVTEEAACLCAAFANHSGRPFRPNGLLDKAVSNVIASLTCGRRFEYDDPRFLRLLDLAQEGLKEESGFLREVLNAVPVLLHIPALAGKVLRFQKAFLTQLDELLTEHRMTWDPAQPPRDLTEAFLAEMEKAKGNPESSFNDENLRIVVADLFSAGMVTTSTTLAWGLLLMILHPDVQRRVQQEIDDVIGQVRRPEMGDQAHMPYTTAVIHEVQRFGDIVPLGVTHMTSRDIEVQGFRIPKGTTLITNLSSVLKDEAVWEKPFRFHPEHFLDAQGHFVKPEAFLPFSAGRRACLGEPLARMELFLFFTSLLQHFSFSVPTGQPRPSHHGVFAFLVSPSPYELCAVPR

Cytochrome P450 2C9 = Cytochrome P450 2C9 (Homo sapiens, UniProt P11712)
Sequence of Cytochrome P450 2C9 (P11712 whole entry): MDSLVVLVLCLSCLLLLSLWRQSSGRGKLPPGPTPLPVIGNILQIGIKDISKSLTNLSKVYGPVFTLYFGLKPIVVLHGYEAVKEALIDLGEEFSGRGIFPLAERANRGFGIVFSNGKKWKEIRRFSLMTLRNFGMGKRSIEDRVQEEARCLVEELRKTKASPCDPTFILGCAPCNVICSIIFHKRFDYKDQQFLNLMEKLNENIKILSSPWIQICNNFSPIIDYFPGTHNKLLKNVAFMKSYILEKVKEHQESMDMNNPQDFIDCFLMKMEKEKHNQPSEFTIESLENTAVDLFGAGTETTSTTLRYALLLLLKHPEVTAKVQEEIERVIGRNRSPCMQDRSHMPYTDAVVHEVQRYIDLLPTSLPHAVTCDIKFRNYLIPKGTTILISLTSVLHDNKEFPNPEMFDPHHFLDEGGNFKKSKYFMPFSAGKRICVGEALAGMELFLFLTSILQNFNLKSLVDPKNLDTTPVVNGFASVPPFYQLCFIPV

[7] = Trypanosoma cruzi growth suppression in host cells – NIH3T3 host cells, beta-gal luminescence, confirmation (AID 2044); assay type: functional, cell-based;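 also: intracellular parasites grown in NIH/3T3 mouse fibroblasts as host cells; luminescent beta-galactosidase reporter signal from transgenic T. cruzi replicating inside host cells; inhibitors lower the luminescence signal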
[8] = test system: Streptococcus sp. 'group A'; test: Streptococcus pyogenes SK(-)GAS viability under kanamycin – luminescence, BacTiterGlo, confirmation, counter-screen for streptokinase expression inhibitor project, dose response (AID 1900); assay type: functional, organism-based
Streptococcus = test: GAS UMAA2166 growth inhibition – luminescence, BacTiterGlo, counter-screen for streptokinase expression inhibitor project, dose response (AID 1915); assay type: functional, organism-based;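 also: potency for reduction of bacterial viability or growth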
Streptokinase A = biological target: T6, Streptokinase A (Streptococcus pyogenes serotype M1, UniProt P10520); test: viability-normalized secreted streptokinase activity reduction – plasminogen activation absorbance, OD405, dose response (AID 1914); assay type: functional, Streptococcus pyogenes M1 GAS;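 also: secreted streptokinase activity via plasminogen activation per viability signal from cell pellet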
T6 sequence (P10520 whole entry): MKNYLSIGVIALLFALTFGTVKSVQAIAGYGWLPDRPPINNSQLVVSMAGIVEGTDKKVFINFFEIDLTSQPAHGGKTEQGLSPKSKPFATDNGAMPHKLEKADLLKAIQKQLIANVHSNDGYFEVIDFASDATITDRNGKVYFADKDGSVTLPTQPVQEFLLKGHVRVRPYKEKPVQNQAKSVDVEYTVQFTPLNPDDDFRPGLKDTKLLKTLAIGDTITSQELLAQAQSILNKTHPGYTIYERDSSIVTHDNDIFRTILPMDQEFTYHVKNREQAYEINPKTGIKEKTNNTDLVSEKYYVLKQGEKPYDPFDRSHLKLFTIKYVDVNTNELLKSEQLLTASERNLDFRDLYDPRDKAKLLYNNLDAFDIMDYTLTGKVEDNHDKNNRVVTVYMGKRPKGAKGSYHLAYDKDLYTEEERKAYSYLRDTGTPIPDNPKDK

INS1 = test: INS-1E survival protection against cytokine death – cell-based, luminescence, retest, dose response (AID 449756); assay type: functional; details: Rattus norvegicus;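 also: cell death triggered by IL-1 beta plus TNF-alpha plus IFN-gamma mixture; protective hits raise ATP signal compared with cytokine alone wells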
[9] = biological target: Heat shock protein HSP 90-alpha (Homo sapiens, UniProt P07900); assay type: functional, organism-based
[10] = blockers of CRF-binding protein–CRF-R2 complex – cell-based, uHTS hits, 384-well, dose response (AID 651639); assay type: functional, Homo sapiens; details: read-out: IC50_Mean
[11] = biological target: T7, Corticotropin-releasing factor receptor 2/Corticotropin-releasing factor-binding protein (Homo sapiens, UniProt P24387+Q13324); test: Dose Response confirmation of uHTS hits for small molecule antagonists of the CRF-binding protein and CRF-R2 receptor complex.; assay type: functional; details: read-out: IC50_Mean
T7 sequence (Q13324 whole entry): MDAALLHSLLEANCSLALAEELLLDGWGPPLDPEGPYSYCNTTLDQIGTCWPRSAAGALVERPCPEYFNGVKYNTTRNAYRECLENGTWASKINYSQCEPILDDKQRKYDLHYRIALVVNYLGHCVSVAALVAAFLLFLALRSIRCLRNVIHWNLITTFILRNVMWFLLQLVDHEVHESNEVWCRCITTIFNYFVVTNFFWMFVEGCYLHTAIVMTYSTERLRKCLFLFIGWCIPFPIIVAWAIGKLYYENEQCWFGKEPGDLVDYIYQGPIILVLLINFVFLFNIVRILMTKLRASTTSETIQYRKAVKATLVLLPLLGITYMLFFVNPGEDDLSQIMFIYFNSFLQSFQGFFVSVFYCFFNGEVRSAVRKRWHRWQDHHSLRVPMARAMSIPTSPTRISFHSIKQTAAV
T7 sequence (P24387 whole entry): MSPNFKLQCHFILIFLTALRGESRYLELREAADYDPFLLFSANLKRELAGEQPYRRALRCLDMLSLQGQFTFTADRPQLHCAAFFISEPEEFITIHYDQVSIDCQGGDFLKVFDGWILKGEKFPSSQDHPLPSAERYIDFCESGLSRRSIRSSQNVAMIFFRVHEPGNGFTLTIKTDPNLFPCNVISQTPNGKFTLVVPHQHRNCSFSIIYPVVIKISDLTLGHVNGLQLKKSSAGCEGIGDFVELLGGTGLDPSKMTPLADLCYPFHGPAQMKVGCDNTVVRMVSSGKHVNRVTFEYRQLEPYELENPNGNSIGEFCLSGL

[12] = biological target: T7, Corticotropin-releasing factor receptor 2/Corticotropin-releasing factor-binding protein; test: activators of CRF receptor 2 with binding protein – uHTS hits, confirmation (AID 602473); assay type: functional; details: read-out: EC50_Mean

Structure (SMILES): CSc1sccc1/C=C(/C#N)C(=O)c1ccco1
- EC50 [1]: > 300 µM (not active)
- IC50 [2]: 22.8 µM (active)
- EC50 [3]: > 300 µM (not active)
- IC50 (Genome polyprotein): > 100 µM (active)

Structure (SMILES): CCOC(=O)c1c(N)sc2c(O)c(Br)ccc12
- IC50 [2]: 58.6 µM (active)
- CC50 [4]: 47 µM (active)
- EC50 [5]: > 195 µM (not active)
- IC50 [6]: > 64 µM (inactive)

Structure (SMILES): C=CCSc1nc(C)c(CC=C)c(O)n1
- IC50 (Coagulation factor XII): > 50 µM (inactive)

Structure (SMILES): C/C(=N\NC(=O)CCn1nnc2ccccc21)c1cccs1
- IC50 (Coagulation factor XII): > 50 µM (inactive)

Structure (SMILES): Cc1ccc(-c2nn(-c3ccccc3)cc2/C=N/NS(=O)(=O)c2ccccc2)cc1
- IC50 (Coagulation factor XII): > 50 µM (inactive)

Structure (SMILES): CC(C)c1ccc(Nc2ccc(C(=O)O)cc2[N+](=O)[O-])cc1
- IC50 (Genome polyprotein): 70.7 µM (active)

Structure (SMILES): CCCCc1nc(O)c(C#N)c2c1CCCC2
- IC50 (Coagulation factor XII): > 50 µM (inactive)
- AC50 (Cytochrome P450 2D6): 35.5 µM (inconclusive)
- AC50 (Cytochrome P450 2C9): 0.251 µM (inconclusive)

Structure (SMILES): O=C(Nc1ccccc1C(=O)O)c1cccc(C(=O)Nc2ccccc2C(=O)O)c1
- IC50 (Genome polyprotein): 54.9 µM (active)

Structure (SMILES): Oc1c(C(Nc2ccccn2)c2cccnc2)cc(Cl)c2cccnc12 (centres undefined)
- EC50 [7]: 1.64 µM (active)
- EC50 [8]: 4.69 µM (active)
- EC50 (Streptococcus): 9.26 µM (active)
- EC50 (Streptokinase A): > 150 µM (not active)
- AC50 (INS1): 2.65 µM (active)
- AC50 [9]: 4.19 µM (active)

Structure (SMILES): COc1cccc(Cn2c(NCc3ccco3)nc3c2c(=O)n(C)c(=O)n3C)c1
- IC50 (Coagulation factor XII): > 50 µM (inactive)
- AC50 (INS1): 3.85 µM (active)

Structure (SMILES): CN(C)/C=C/C(=O)c1ccc2noc(-c3ccccc3)c2c1
- AC50 [9]: 2.51 µM (active)

Structure (SMILES): Cc1ccc(S(=O)(=O)N(Cc2ccccc2)c2ccccc2C(=O)NCc2ccco2)cc1
- IC50 (Coagulation factor XII): > 50 µM (inactive)
- IC50 [10]: 6.81 µM (active)
- AC50 (Cytochrome P450 2D6): 15.8 µM (inconclusive)
- IC50 [11]: < 0.368 µM (active)
- EC50 [12]: > 53 µM (inactive)

Structure (SMILES): O=[N+]([O-])c1cc(-c2ccccc2)cc([N+](=O)[O-])c1O
- IC50 [10]: > 20 µM (inactive)
- IC50 (Genome polyprotein): 58.8 µM (active)
- IC50 [11]: 9.96 µM (active)
- EC50 [12]: > 53 µM (inactive)
